Experimental data taken from patent publication US20030082678A1, “Methods and compositions for regulating body weight in bovine species” (priority 2001, published 2003).
Where “and” joins values, the source holds several entries; their conditions need not be identical. Equal entries are not always repeated. Ends that are not written are not given here.

Legend:
[1] = molecular target: T1, bovine MC4-R (Bos taurus, UniProt Q9GLJ8); assay: CRE-luciferase reporter assay in human embryonic kidney 293 cells transiently co-transfected with bovine MC4-R; assay type: cell-based; conditions: for Luciferase Activity: 18 hrs, transiently transfected human embryonic kidney 293 cells
T1 construct: expressed in transfected cells; host or cells: human embryonic kidney 293 cells (ATCC CRL 1573), transient co-transfection of pcDNA3.1-bMC4R with the pGL2-promoter/CRE luciferase reporter
T1 sequence (Q9GLJ8 whole entry): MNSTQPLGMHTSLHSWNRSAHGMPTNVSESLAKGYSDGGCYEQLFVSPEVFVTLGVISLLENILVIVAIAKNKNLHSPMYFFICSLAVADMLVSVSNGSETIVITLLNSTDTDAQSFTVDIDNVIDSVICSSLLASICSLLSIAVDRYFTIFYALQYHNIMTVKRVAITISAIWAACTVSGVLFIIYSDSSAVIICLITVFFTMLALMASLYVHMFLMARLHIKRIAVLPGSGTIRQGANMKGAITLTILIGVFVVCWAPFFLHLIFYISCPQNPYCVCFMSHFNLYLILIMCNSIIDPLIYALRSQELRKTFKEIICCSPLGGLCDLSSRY
Protocol: The phagemid pBluescript-bMC4-R (10 μg) containing a full-length (1.9 kb) bovine MC4-R cDNA (SEQ ID NO:1) was digested using restriction endonucleases EcoRI (20 units, Gibco-BRL) and XhoI (20 units, Gibco-BRL) at 37° C. for 1 hr following the supplier's instructions. The resulting 1.9 kb bovine MC4-R cDNA fragment was then subcloned into the mammalian cell expression plasmid pcDNA3.1(+) (Invitrogen, Carlsband, Calif.) following standard cloning procedures (Sambrook et al., 1989, Molecular Cloning, A Laboratory Manual, Second Edition, Cold Spring Harbor Laboratory Press). The resulting bovine MC4-R expression plasmid, pcDNA3.1-bMC4R, was then used in conjunction with a reporter plasmid, pGL2-promoter/CRE (cyclic AMP activated transcription binding protein response element), to transiently co-transfect human embryonic kidney 293 cells (ATCC CRL 1573) using the LipofectAMINE PLUS reagent kit (Gibco-BRL, catalog no. 10964-013) following the supplier's instructions.
The pGL2-promoter/CRE plasmid, containing tandem cAMP activated transcription binding protein response elements from the rat somatostatin gene (Vallejo, et al., 1992, J. Biol. Chem. 267(18):12868-12875) and human chorionic gonadotropin (hCG) gene (Deutsch, et al., 1987, J. Biol. Chem. 262(25):12169-12174), was prepared following standard cloning procedures (Sambrook et al., supra). In brief, the plasmid was constructed by inserting a double stranded oligonucleotide linker, CRE-2 (SEQ ID NO:22), containing the rat somatostatin CRE sequence (5′-[…]-3′; SEQ ID NO:20), the human chorionic gonadotropin (hCG) CRE sequence (5′-AAATTGACGTCATGGTAA-3′; SEQ ID NO:21), and MluI and BglII cohesive ends, into the MluI and BglII sites, respectively, of plasmid pGL2-promoter (Promega, Madison, Wis., catalog no. E1631). The CRE-2 linker had the structure:
The CRE-2 oligonuceotide linker was prepared by first synthesizing the CREA and CREB oligonucleotides, including the MluI and BglII cohesive ends, using a DNA synthesizer Model 370 from PE-Biosystems (Foster City, Calif.). […]

[2] = molecular target: bovine melanocortin 4 receptor protein (MC4-R) (bovine); assay: cell-based or functional assay

Activation of cloned bovine MC4-R expressed in 293 cells ([1]; human embryonic kidney 293 cells) | Luciferase Activity ([1]; α-MSH 1 nM) | Luciferase Activity ([1]; α-MSH 10 nM) | Luciferase Activity (CRE-luciferase reporter, 293 cells), 0 nM α-MSH (baseline without ligand) [2] | Luciferase Activity (CRE-luciferase reporter, 293 cells), 1 nM α-MSH [2] | Luciferase Activity (CRE-luciferase reporter, 293 cells), 10 nM α-MSH [2] | Molecule
activated | 24.80 and 26.67 | 35.13 and 37.13 | – | – | – | α-MSH
– | – | – | 8.19 and 7.78 | 24.8 and 26.7 | 35.1 and 37.1 | SYSMEHFRWGKPV (peptide, UniProt P01189 138-150, looked up, ends and bridges not checked) [human α-MSH]
